Experimental data reported in US9321718B2 (CHROMA THERAPEUTICS LTD., priority 2010, dated 2016).
Like-named read-outs stand apart in the source and are kept apart here.

Legend:
[1] = molecular target: T1, human recombinant his-tagged HSP90α (Homo sapiens, UniProt P07900); assay: HSP90 enzyme assay (HTRF, competition with biotinylated Geldanamycin); format: binding
T1 construct: purchased Prospec Technogene #HSP90
Method in brief: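 HTRF competition: compounds (5000 to 0.3 nM, 0.5% DMSO) displace 40 nM biotinylated geldanamycin from 40 nM his-tagged HSP90α. Binding was read via Eu-cryptate anti-his/streptavidin-XL FRET after 20 h at room temperature in Hepes pH 7.3 buffer. IC50 was fitted against controls.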

[2] = test system: TNFα release from LPS stimulated THP-1 (hCE-1 +ve) cells; assay: LPS-stimulation of THP-1 cells (TNF-α release); format: cell-based, human; conditions: for IC50: Homo sapiens, THP-1
Method in brief: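 THP-1 cells at 4×10^4 per well were pre-incubated for 16 h, then exposed to inhibitor for 2 h before stimulation with 1 μg/ml LPS for 6 h at 37 °C. TNF-α in cell-free supernatants was measured by sandwich ELISA.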

[3] = test system: TNF-α levels in LPS-stimulated human whole blood; assay: LPS-stimulation of human whole blood (TNF-α levels); format: cell-based; conditions: Homo sapiens; IC50 range; TNF-α after LPS 100 ng/ml, 6 hours
Method: Whole blood is taken by venous puncture using heparinised vacutainers (Becton Dickinson) and diluted in an equal volume of RPMI1640 tissue culture media (Sigma). 100 μl is then plated in V-bottomed 96 well tissue culture treated plates. 2 Hours after the addition of the inhibitor in 100 μl of RPMI1640 media, the blood is stimulated with LPS (E. Coli strain 005:B5, Sigma) at a final concentration of 100 ng/ml and incubated at 37° C. in 5% CO2 for 6 hours. TNF-α levels are measured from cell-free supernatants by sandwich ELISA (R&D Systems #QTA00B).

intact U937 cells = assay: Carboxylic acid accumulation in intact U937 cells; format: in vitro ADME, human; conditions: in words
Method: (§1) The assessment of the accumulation of ester-derived acid in intact human tumour cells can be measured using the following method:
(§2) U937, THP-1 or Hut 78 cells (4×10^4/ml) were incubated at 37° C. in culture medium containing 6 μM compound. Incubations were terminated by centrifugation (300 g; 5 min; 4° C.). Supernatants were added to 4 volumes of HPLC-grade acetonitrile. After decanting the supernatant, the residual cell pellet (1×10^6 cells) was extracted into 1 ml of acetonitrile. Samples were analyzed for the ester and acid metabolite at room temperature by LC/MS/MS (Sciex API3000). Chromatography was based on an AceCN (75*21 mm) column with a 5-95% (v/v) acetonitrile, 0.1% (v/v) formic acid mobile phase.

intact THP-1 cells = assay: Carboxylic acid accumulation in intact THP-1 cells; format: in vitro ADME, human; conditions: in words
Method: as §1, §2

intact Hut78 cells = assay: Carboxylic acid accumulation in intact Hut78 cells; format: in vitro ADME, human; conditions: in words
Method: as §1, §2

U937 (hCE-1 +ve) cells = assay: Proliferation assay, U937 cells; format: cell-based, human
Method: (§3) Cells are seeded in 96 well tissue culture plates (1 well=30 mm^2) at an appropriate density (2000 cells per well for U937 cells, 2250 cells per well for HUT-78 and MINO cells) in 50 μl of culture medium (see below for details). 24 Hours later 50 μl of the compound prepared in the same medium is added as 3 fold dilutions to give final concentrations in the range 5-10,000 nM (n=6 for each concentration). The plates are then incubated at 37° C., 5% CO2 for 72 hours. Cell proliferation is assessed using WST-1 (a metabolic indicator dye, Roche Cat no. 11644807001) according to the manufacturer's instructions. The results are calculated as a percentage of vehicle response and plotted as a dose-response curve. IC50 values represent the concentration of compound that inhibits the vehicle response by 50%.
(§4) Culture medium for U937 and RUT-78 cells is RPMI1640 (Sigma R0883) with 10% heat inactivated fetal calf serum (Hyclone SH30071, Perbio), plus 2 mM glutamine (Sigma G7513) and 50 U/ml penicillin and streptomycin sulphate (Sigma P0781). MINO cell culture medium is as for U937 and HUT-78 but supplemented with sodium pyruvate (Sigma S8636) to a final concentration of 1 mM.

Hut78 (hCE-1 -ve) cells = assay: Proliferation assay, Hut78 cells; format: cell-based, human
Method: as §3, §4

[4] = IC50 range, read-out: Enzyme Assay
[5] = IC50 range, TNF-α after LPS 1 μg/ml, 6 hours, read-out: THP-1 Assay

`CC(C)C[C@H](NC1CCN(C(=O)c2cc(C(C)C)c(O)cc2O)CC1)C(=O)OC1CCCC1` [Example 1, cyclopentyl N-(1-{[2,4-dihydroxy-5-(propan-2-yl)phenyl]carbonyl}piperidin-4-yl)-L-leucinate] showed an IC50 [1, 4] of less than 100 nM, an IC50 [2, 5] of less than 100 nM and an IC50 [3] of 100 to 1000 nM. The “Carboxylic acid accumulated by U937 cells” value (intact U937 cells) was “significant amounts”, the “Carboxylic acid accumulated by THP-1 cells” value (intact THP-1 cells) was “significant amounts” and the “Acid detected in Hut78 cells” value (intact Hut78 cells) was “negligible”.

`CC(C)c1cc(C(=O)N2CCC(N[C@@H](COC(C)(C)C)C(=O)OC3CCCC3)CC2)c(O)cc1O` [Example 17, cyclopentyl O-tert-butyl-N-(1-{[2,4-dihydroxy-5-(propan-2-yl)phenyl]carbonyl}piperidin-4-yl)-L-serinate] was tested, and the IC50 [1, 4] was less than 100 nM, the IC50 ([1]; acid (carboxylic acid of the ester drawn), read-out: Enzyme assay: Inhibition of Hsp90 (IC50 nM)) was 7 nM and the IC50 ([1]; compound as drawn (ester for the ester compound), read-out: Enzyme assay: Inhibition of Hsp90 (IC50 nM)) was 42 nM. For the same molecule, the “IC50 in the Hsp90 binding assay compared with CHR-7310” value ([1]; in words, relative to non-ester parent CHR-7310) was “weaker”, the IC50 [2, 5] was less than 100 nM and the IC50 ([2]; read-out: THP-1 assay: Inhibition of TNFα release from LPS stimulated THP-1 (hCE-1 +ve) cells (IC50 nM)) was 45 nM. For the same molecule, the “Potency in THP-1 cells compared with CHR-7310” value ([2]; in words, relative to CHR-7310) was “significantly more potent”, the IC50 [3] was 100 to 1000 nM and the IC50 (U937 (hCE-1 +ve) cells; Homo sapiens, U-937, U937, 72 hours, WST-1, read-out: Proliferation assay: Inhibition of U937 (hCE-1 +ve) cell proliferation IC50) was 27 nM. The “Potency in U937 cells compared with CHR-7310” value (U937 (hCE-1 +ve) cells; in words, relative to CHR-7310) was “significantly more potent”, the IC50 (Hut78 (hCE-1 -ve) cells; Homo sapiens, Hut78, 72 hours, WST-1, read-out: Proliferation assay: Inhibition of Hut78 (hCE-1 -ve) cell proliferation IC50) was 760 nM and the “Ratio of IC50's of Hut78 to U937 cells” value (Hut78 (hCE-1 -ve) cells; Hut78 IC50 / U937 IC50) was 28. The “Potency in Hut78 cells” value (Hut78 (hCE-1 -ve) cells; in words, Hut78 cells do not contain hCE-1) was “significantly weaker”.
